Laboratory results from PubChem BioAssay AID743092 (The Scripps Research Institute Molecular Screening Center, 2013).
Active and inactive are the calls of the source. No rule for the calls is given here.

Test system: counterscreen cell line, fluorescence, non-specific activators
Test: non-specific activators in counterscreen cell line, dose response, counter-screen for GalR3 antagonist project, fluorescence, late stage (AID 743092)

Compound: NC(=O)c1nnn(Cc2cc(Cl)c(C(=O)c3ccc(Cl)cc3)c(Cl)c2)c1N
- IC50: > 29.9 µM (inactive)

Compound: O=S(=O)(NCc1ccncc1)c1ccc(Br)s1
- IC50: > 29.9 µM (inactive)

Compound: CCCOC(=O)c1ccc(OCC(O)Cn2c(C)nc3ccccc32)cc1 (configuration not stated)
- IC50: > 29.9 µM (inactive)

Compound: CCOc1nc(C#N)nc(N2CCCCC2)n1
- IC50: > 29.9 µM (inactive)

Compound: Fc1ccc(NC(=S)N2CCCN(c3ccc(C(F)(F)F)cn3)CC2)c(F)c1
- IC50: > 29.9 µM (inactive)

Compound: O=C(CSc1nnnn1C1CC2CCC1C2)Nc1ccnc2ccccc12 (configuration not stated)
- IC50: > 29.9 µM (inactive)

Compound: O=C(CSc1nnc(Cn2nnc3ccccc32)o1)N(Cc1ccc(F)cc1)c1ccccc1
- IC50: > 29.9 µM (inactive)

Compound: COc1ccc(CN(C)c2ccc(S(=O)(=O)N3CCN(C)CC3)cc2[N+](=O)[O-])cc1OC
- IC50: > 29.9 µM (inactive)

Compound: CCCOc1ccc(CSc2nc3ccccc3[nH]2)cc1
- IC50: > 29.9 µM (inactive)

Compound: CCOc1cc(S(=O)(=O)NCc2ccncc2)ccc1Cl
- IC50: > 29.9 µM (inactive)

Compound: O=C(Cc1ccc(Cl)cc1Cl)Nc1ccncc1Cl
- IC50: > 29.9 µM (inactive)

Compound: O=C(COc1ccc(C(=O)c2ccccc2)cc1)Nc1cccnc1
- IC50: > 29.9 µM (inactive)

Compound: CC1CC(=O)NN=C1c1ccc(N)c([N+](=O)[O-])c1 (configuration not stated)
- IC50: > 29.9 µM (inactive)

Compound: COc1ccc(OC)c(CCNC(=O)Cn2nc(C)c3c(C)n(-c4ccc(C)cc4)nc3c2=O)c1
- IC50: > 29.9 µM (inactive)

Compound: COc1ccc(NS(=O)(=O)c2ccc(NC(=O)c3ccc(CN4CCOCC4)cc3)cc2)cc1
- IC50: > 29.9 µM (inactive)

Compound: NC(=O)c1c(-c2ccc(Cl)cc2Cl)csc1NC(=O)Cc1ccccc1
- IC50: > 29.9 µM (inactive)

Compound: Cc1ccc(Oc2ccc(OCC(=O)Nc3ccncc3)cc2)cc1
- IC50: > 29.9 µM (inactive)

Compound: CCN(CC)S(=O)(=O)c1cc(NC(=O)CNc2cccc(S(=O)(=O)N3CCOCC3)c2)ccc1C
- IC50: > 29.9 µM (inactive)

Compound: COc1cc2c(cc1OC)[C@@H]1C(=O)c3ccc4c(c3O[C@@H]1CO2)C[C@H](C(C)C)O4
- IC50: > 29.9 µM (inactive)

Compound: CSc1ccc(C(=O)C2CCCN(C(=O)CCc3c(C)nn(C)c3C)C2)cc1 (configuration not stated)
- IC50: > 29.9 µM (inactive)

Compound: CC(C)(C)c1ccc(C(=O)Nc2ccc(Oc3cccnc3)nc2)cc1
- IC50: > 29.9 µM (inactive)

Compound: Cc1ccccc1-c1cc(C(=O)Nc2sc(C(=O)OC(C)C)c(C)c2C#N)c2ccccc2n1
- IC50: > 29.9 µM (inactive)

Compound: O=C(Nc1nc(-c2ccc(Cl)cc2Cl)cs1)c1ccc(OCC2CCCO2)cc1 (configuration not stated)
- IC50: > 29.9 µM (inactive)

Compound: CC(C)(C)c1ccc(-n2ncc3c2CCCC3NC(=O)C2(C(N)=O)CC2)cc1 (configuration not stated)
- IC50: > 29.9 µM (inactive)

Compound: CCOC(=O)c1[nH]c2ccc(OC)cc2c1NS(=O)(=O)c1ccc(Cl)s1
- IC50: > 29.9 µM (inactive)

Compound: Cc1cc(CSc2ccccc2)ccc1NC(=O)c1ccc(CN2CCOCC2)cc1
- IC50: > 29.9 µM (inactive)

Compound: CC(C)(C)CN1CCN(Cc2nc(-c3ccc(F)cc3)cs2)CC1CCO (configuration not stated)
- IC50: > 29.9 µM (inactive)

Compound: COc1cc(CSc2nnnn2-c2ccc(C)cc2)cc(OC)c1OC
- IC50: > 29.9 µM (inactive)

Compound: Cn1nc(C(C)(C)C)cc1C(=O)NCc1ccc(N2CCCC2=O)cc1
- IC50: > 29.9 µM (inactive)

Compound: Nc1cc(-c2ccc(Br)cc2)nn1Cc1ccccc1
- IC50: > 29.9 µM (inactive)

Compound: CC(=O)c1ccc(N2CCN(C(=S)Nc3ccc(Oc4ccccc4)cc3)CC2)cc1
- IC50: > 29.9 µM (inactive)

Compound: CCCCc1ccc(NC(=O)c2ccc(N(C)S(C)(=O)=O)cc2)cc1
- IC50: > 29.9 µM (inactive)

Compound: COc1ccc(C(=O)CSc2nnc(Cn3cnc4ccccc43)o2)cc1
- IC50: > 29.9 µM (inactive)

Compound: Cc1cccc(Cl)c1NC(=O)N1CCCN(c2nc3ccc(Cl)cc3s2)CC1
- IC50: > 29.9 µM (inactive)

Compound: Cc1cc(C)nc(SCC(=O)Nc2ccnc3ccccc23)n1
- IC50: > 29.9 µM (inactive)

Compound: Cc1nc2ccccc2n1Cc1ccc(Cl)cc1
- IC50: > 29.9 µM (inactive)

Compound: N#Cc1cc(-c2ccccc2)oc1NC(=O)c1ccco1
- IC50: > 29.9 µM (inactive)

Compound: Cc1[nH]c(=O)c(C#N)cc1-c1ccccc1
- IC50: > 29.9 µM (inactive)

Compound: COc1ccc(-n2c(C)cc(C(=O)COC(=O)Cn3cnc4ccccc43)c2C)cc1
- IC50: > 29.9 µM (inactive)

Compound: CCCCCn1c(=O)[nH]c2cc(C(=O)N3CCN(Cc4ccc5c(c4)OCO5)CC3)ccc2c1=O
- IC50: > 29.9 µM (inactive)

Compound: S=C(NCCc1ccccc1)Nc1cccc2cnccc12
- IC50: > 29.9 µM (inactive)

Compound: CNc1ccccc1C(C)(C)c1cc(-c2ccc(F)cc2)no1
- IC50: 19.6 µM (inactive)

Compound: CCOC(=O)Cc1csc(NC(=O)c2cc(=O)c3ccccc3o2)n1
- IC50: > 29.9 µM (inactive)

Compound: CC(=O)c1cn(CC(=O)NCCc2c[nH]c3ccccc23)c2ccccc12
- IC50: > 29.9 µM (inactive)

Compound: CC(C)(C)NC(=O)COC(=O)c1snc(C(=O)NC2CCCCC2)c1N
- IC50: > 29.9 µM (inactive)

Compound: Cc1nn(C)c(Nc2ccc(Br)cc2)c1Br
- IC50: > 29.9 µM (inactive)

Compound: COc1ccc(CN2CCC(C(=O)Nc3ccc(Oc4ccccc4)nc3)CC2)cc1F
- IC50: > 29.9 µM (inactive)

Compound: Cc1ccccc1Cn1c(C)nc2ccccc21
- IC50: > 29.9 µM (inactive)

Compound: COc1cccc2[nH]c3c(N4CCC(C)CC4)ncnc3c12
- IC50: > 29.9 µM (inactive)

Compound: CC(=O)c1c(C)[nH]c(C(=O)COc2cc(C)ccc2C(C)C)c1C
- IC50: > 29.9 µM (inactive)

Compound: Cc1cc(C(=O)CSc2nc(N)cc(=O)[nH]2)c(C)n1-c1ccc(OC(F)F)cc1
- IC50: > 29.9 µM (inactive)

Compound: Nc1nonc1-n1nnc(C(=O)N/N=C/c2cc(Br)ccc2O)c1CSC1=NCCS1
- IC50: > 29.9 µM (inactive)

Compound: Cc1oc(-c2ccc(Cl)cc2)nc1CSCC(=O)NC1CCN(Cc2ccccc2)CC1
- IC50: 26.8 µM (inactive)

Compound: Cc1nn(C)c(Cl)c1NC(=O)OCc1ccc(Cl)cc1Cl
- IC50: > 29.9 µM (inactive)

Compound: CC1(C)CC2CC(C)(CN2S(=O)(=O)c2ccc(C(=O)Nc3cccc(S(=O)(=O)N4CCOCC4)c3)cc2)C1 (configuration not stated)
- IC50: > 29.9 µM (inactive)

Compound: COc1ccc(CCNc2ncnc3sccc23)cc1OC
- IC50: > 29.9 µM (inactive)

Compound: Cc1nn(C)c(C)c1CN(C)S(=O)(=O)c1ccc2ccccc2c1
- IC50: > 29.9 µM (inactive)
